In one test the test system is TGFβ1. Briefly: TGFβ1 gene expression in ulcer tissue biopsies of treated patients. Format: in vivo, human. Conditions: first month of treatment.
The next test concerns COL1α. Briefly: COL1α gene expression in ulcer tissue biopsies of treated patients. The test is classed as in vivo, human. Conditions: first month of treatment.

SMILES strings stand for the structures.

Regarding `O=C(c1ccc(F)cc1)C1CCN(CCn2c(=O)[nH]c3ccccc3c2=O)CC1` [KTS, Ketanserin], the “Patients showing an increase in TGFβ1 gene expression” value in the test on TGFβ1 is reported as 29%. In the test with COL1α, the “Patients showing an increase in COL1α expression” value is recorded as 43%.

These data come from US11576905B2, “Topical semisolid composition containing an antimicrobial agent and pirfenidone for the treatment of chronic skin damage” (Excalibur Pharmaceuticals, Inc., priority 2017, dated 2023).
